In US9119848B2, “Morphinan derivatives for the treatment of drug overdose” (Alkermes Pharma Ireland Limited, priority 2009, dated 2015):

Experiments:
[1] = Elimination of Compound-1 in study subjects
[2] = test system: opioid dependent, opioid experienced subject; test: Compound-1 after REMI challenge in an opioid dependent, opioid experienced subject; conditions: 10 mg on Day 2, one opioid dependent subject

## NC(=O)c1ccc2c(c1O)[C@]13CCN(CC4CC4)[C@H](C2)[C@]1(O)CCC(=O)C3 [Compound-1]
[1]; by 4 days post-dose
  fraction of Compound-1 eliminated: more than 99%
[1]; human, in vivo, 20 mg
  half-life: 7 h
[2]
  time to severe drug withdrawal post-dosing: 2 min
